The values below come from patent publication US20250235500A1, “NEW POLYPEPTIDE FOR PROMOTING TISSUE REPAIR, AND USE THEREOF” (Jinan University, priority 2021, published 2025).

Bridge positions count the residues as written; N and C are the ends. Peptide text beside a SMILES is read from it.

The subject of one series is skin of subjects. Kind of series: Skin safety evaluation, closed patch test. The series is classed as in vivo, human. The note with it: TRF7 2 mg/mL, 24 h patch, 20 subjects, observed at 0.5, 6, 12, 24 and 48 h. How it is done: Subject population: A total of 20 subjects, comprising 10 females and 10 males aged 18-55, were selected. All subjects had healthy skin without any history of skin diseases or allergies, meeting the eligibility criteria for participation.
Test method: Qualified patch testers were selected, and a closed patch test method was adopted. Approximately 0.020-0.025 mL of the polypeptide TRF7 (2 mg/mL) was applied to the patch testers, which were then affixed to the subjects' backs using specialized adhesive tape. […] The results of the skin reactions were recorded according to the grading standards stipulated in the Hygienic Standard for Cosmetics.

The test system of series [1] is stress-induced gastric ulcer in rats. Kind of series: Protective effect on stress-induced gastric ulcer in rats (restraint water-immersion). The series is classed as in vivo, SD rats. The conditions noted are these: sucralfate 1 g/kg intragastric, 7 days; Guth standard; model group 75.1 ± 13.8. How it is done:
Test Method: 20 male SD rats weighing 180-210 g (purchased from Guangdong Medical Experimental Animal Center) were randomly divided into five groups: a blank group, a model group, a sucralfate group (1 g/kg, a positive drug group), a low-dose TRF7 group (12.5 mg/kg), and a high-dose TRF7 group (50.0 mg/kg). The treatment groups were subjected to intragastric administration for 7 consecutive days. 24 h before modeling, the rats were subjected to […] but fed with water. […] The rats were cut open along greater curvatures of the stomach, rinsed with the normal saline, and then unfolded, damage to gastric mucosa was observed, and a gastric ulcer index was calculated. Calculating the ulcer index (UI) according to a Guth standard: punctate hemorrhage was scored as 1 point, linear hemorrhage with a length of <1 mm was scored as 2 points, linear hemorrhage with a length of 1-2 mm was scored as 3 points, linear hemorrhage with a length of 2-4 mm was scored as 4 points, linear hemorrhage with a length of >4 mm was scored as 5 points, and linear hemorrhage with a width of >1 mm was scored double points.

`CC(C)C[C@H](NC(=O)[C@@H]1CCCN1C(=O)[C@H](C)NC(=O)[C@H](Cc1ccc(O)cc1)NC(=O)[C@H](CO)NC(=O)CNC(=O)[C@@H]1CSSC[C@H](NC(=O)[C@H](C)N)C(=O)N2CCC[C@H]2C(=O)N[C@@H](CC(N)=O)C(=O)N[C@@H](Cc2ccc(O)cc2)C(=O)N2CCC[C@H]2C(=O)N[C@@H](Cc2ccc(O)cc2)C(=O)N1)C(=O)NCC(=O)N[C@@H](Cc1ccc(O)cc1)C(=O)N[C@@H](Cc1c[nH]cn1)C(=O)N[C@H](C(=O)N[C@@H](CCCNC(=N)N)C(=O)N[C@@H](CCC(=O)O)C(=O)N[C@@H](Cc1ccc(O)cc1)C(=O)N1CCC[C@H]1C(=O)N[C@@H](C)C(=O)NCC(=O)N[C@H](C(=O)N[C@@H](CO)C(=O)N[C@@H](C)C(=O)N[C@@H](C)C(=O)O)C(C)C)C(C)C` [TRF7] (H-ACPNYPYCGSYAPLGYHVREYPAGVSAA-OH; disulfide 2-8): in the series with skin of subjects, the “skin reactions in closed patch test” value is recorded as “no adverse skin reactions observed”.
sucralfate came in with a Ulcer inde in series [1] of 35.5 ± 8.7.
